Reference: PubChem BioAssay (NCI)
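Assay format: 96-well plates, 48-hour exposure. Abbreviation: GI50, concentration required for 50% inhibition of growth. TGI denotes the concentration required for complete inhibition of growth.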

What was measured:
Assay in all cases: NCI-60 cell line screen, 48 h
786-0 renal = tested on: 786-0 renal
A498 renal = tested on: A498 renal
A549 NSCLC = tested on: A549 NSCLC
ACHN renal = tested on: ACHN renal
BT-549 breast = tested on: BT-549 breast
CAKI-1 renal = tested on: CAKI-1 renal
CCRF-CEM leukemia = tested on: CCRF-CEM leukemia
COLO 205 colon = tested on: COLO 205 colon
DU-145 prostate = tested on: DU-145 prostate
EKVX NSCLC = tested on: EKVX NSCLC
HCC-2998 colon = tested on: HCC-2998 colon
HCT-116 colon = tested on: HCT-116 colon
HL-60(TB) leukemia = tested on: HL-60(TB) leukemia
HOP-62 NSCLC = tested on: HOP-62 NSCLC
HS 578T breast = tested on: HS 578T breast
HT29 colon = tested on: HT29 colon
IGROV1 ovarian = tested on: IGROV1 ovarian
K-562 leukemia = tested on: K-562 leukemia
KM12 colon = tested on: KM12 colon
LOX IMVI melanoma = tested on: LOX IMVI melanoma
M14 melanoma = tested on: M14 melanoma
MALME-3M melanoma = tested on: MALME-3M melanoma
MCF7 breast = tested on: MCF7 breast
MDA-MB-231 breast = tested on: MDA-MB-231 breast
MDA-MB-435 = tested on: MDA-MB-435
MDA-N = tested on: MDA-N
NCI-H226 lung = tested on: NCI-H226 lung
NCI-H23 lung = tested on: NCI-H23 lung
NCI-H460 lung = tested on: NCI-H460 lung
NCI-H522 lung = tested on: NCI-H522 lung
OVCAR-3 ovarian = tested on: OVCAR-3 ovarian
OVCAR-4 ovarian = tested on: OVCAR-4 ovarian
OVCAR-5 ovarian = tested on: OVCAR-5 ovarian
OVCAR-8 ovarian = tested on: OVCAR-8 ovarian
PC-3 prostate = tested on: PC-3 prostate
RPMI-8226 leukemia = tested on: RPMI-8226 leukemia
SF-268 CNS = tested on: SF-268 CNS
SF-295 CNS = tested on: SF-295 CNS
SF-539 CNS = tested on: SF-539 CNS
SK-MEL-28 melanoma = tested on: SK-MEL-28 melanoma
SK-OV-3 ovarian = tested on: SK-OV-3 ovarian
SN12C renal = tested on: SN12C renal
SNB-19 CNS = tested on: SNB-19 CNS
SNB-75 CNS = tested on: SNB-75 CNS
SR leukemia = tested on: SR leukemia
SW-620 colon = tested on: SW-620 colon
T-47D breast = tested on: T-47D breast
TK-10 renal = tested on: TK-10 renal
U251 CNS = tested on: U251 CNS
UACC-62 melanoma = tested on: UACC-62 melanoma
UO-31 renal = tested on: UO-31 renal
HCT-15 colon = tested on: HCT-15 colon
HOP-92 NSCLC = tested on: HOP-92 NSCLC
MOLT-4 leukemia = tested on: MOLT-4 leukemia
NCI/ADR-RES ovarian = tested on: NCI/ADR-RES ovarian
SK-MEL-2 melanoma = tested on: SK-MEL-2 melanoma
SK-MEL-5 melanoma = tested on: SK-MEL-5 melanoma
UACC-257 melanoma = tested on: UACC-257 melanoma
RXF 393 renal = tested on: RXF 393 renal

CC(C)(C)C(=O)CC(=O)C(F)(F)C(F)(F)C(F)(F)F.CC(C)(C)C(=O)CC(=O)C(F)(F)C(F)(F)C(F)(F)F.CC(C)(C)C(=O)CC(=O)C(F)(F)C(F)(F)C(F)(F)F.[Er]
TGI (786-0 renal): > 100 µM | GI50 (A498 renal): > 100 µM | TGI (A498 renal): > 100 µM | TGI (A549 NSCLC): > 100 µM | TGI (ACHN renal): > 100 µM | GI50 (BT-549 breast): > 100 µM | TGI (BT-549 breast): > 100 µM | TGI (CAKI-1 renal): > 100 µM | TGI (CCRF-CEM leukemia): > 100 µM | TGI (COLO 205 colon): > 100 µM | TGI (DU-145 prostate): > 100 µM | TGI (EKVX NSCLC): 96.8 µM | GI50 (HCC-2998 colon): 43.5 µM | TGI (HCC-2998 colon): > 100 µM | TGI (HCT-116 colon): > 100 µM | TGI (HL-60(TB) leukemia): > 100 µM | TGI (HOP-62 NSCLC): > 100 µM | TGI (HS 578T breast): > 100 µM | TGI (HT29 colon): > 100 µM | TGI (IGROV1 ovarian): > 100 µM | TGI (K-562 leukemia): > 100 µM | TGI (KM12 colon): > 100 µM | TGI (LOX IMVI melanoma): > 100 µM | TGI (M14 melanoma): > 100 µM | TGI (MALME-3M melanoma): > 100 µM | GI50 (MCF7 breast): > 100 µM | TGI (MCF7 breast): > 100 µM | TGI (MDA-MB-231 breast): > 100 µM | TGI (MDA-MB-435): > 100 µM | TGI (MDA-N): > 100 µM | TGI (NCI-H226 lung): > 100 µM | TGI (NCI-H23 lung): > 100 µM | TGI (NCI-H460 lung): > 100 µM | GI50 (NCI-H522 lung): 94 µM | TGI (NCI-H522 lung): > 100 µM | TGI (OVCAR-3 ovarian): > 100 µM | TGI (OVCAR-4 ovarian): > 100 µM | TGI (OVCAR-5 ovarian): > 100 µM | TGI (OVCAR-8 ovarian): > 100 µM | TGI (PC-3 prostate): > 100 µM | TGI (RPMI-8226 leukemia): > 100 µM | TGI (SF-268 CNS): > 100 µM | TGI (SF-295 CNS): > 100 µM | TGI (SF-539 CNS): > 100 µM | TGI (SK-MEL-28 melanoma): > 100 µM | TGI (SK-OV-3 ovarian): > 100 µM | TGI (SN12C renal): > 100 µM | TGI (SNB-19 CNS): > 100 µM | TGI (SNB-75 CNS): > 100 µM | TGI (SR leukemia): > 100 µM | TGI (SW-620 colon): > 100 µM | TGI (T-47D breast): > 100 µM | TGI (TK-10 renal): > 100 µM | TGI (U251 CNS): > 100 µM | TGI (UACC-62 melanoma): > 100 µM | TGI (UO-31 renal): > 100 µM

O=C1/C(=C/c2ccc3c(c2)OCO3)Sc2scc(-c3ccc(O)c(O)c3)[n+]21
TGI (786-0 renal): 5.48 µM | TGI (A549 NSCLC): 46.3 µM | TGI (ACHN renal): 3.94 µM | TGI (BT-549 breast): 6.13 µM | TGI (CAKI-1 renal): 2.9 µM | TGI (COLO 205 colon): > 19.7 µM | TGI (DU-145 prostate): 13.1 µM | TGI (EKVX NSCLC): 8.25 µM | TGI (HCC-2998 colon): 3.64 µM | TGI (HCT-116 colon): 6.29 µM | TGI (HCT-15 colon): 3.61 µM | TGI (HOP-62 NSCLC): 41.6 µM | TGI (HOP-92 NSCLC): 7.58 µM | TGI (HS 578T breast): 72.6 µM | TGI (HT29 colon): 18.6 µM | TGI (IGROV1 ovarian): 8.09 µM | TGI (K-562 leukemia): 2.93 µM | TGI (KM12 colon): 13.1 µM | TGI (M14 melanoma): 13.3 µM | TGI (MCF7 breast): > 35.2 µM | TGI (MDA-MB-231 breast): > 28.8 µM | TGI (MDA-MB-435): 13.5 µM | TGI (MDA-N): 9.81 µM | TGI (MOLT-4 leukemia): > 20.1 µM | TGI (NCI-H226 lung): > 100 µM | TGI (NCI-H23 lung): 9.29 µM | TGI (NCI-H460 lung): 12.8 µM | TGI (NCI/ADR-RES ovarian): 4.48 µM | TGI (OVCAR-3 ovarian): 15.3 µM | TGI (OVCAR-4 ovarian): 14 µM | TGI (OVCAR-5 ovarian): 30.6 µM | TGI (OVCAR-8 ovarian): 9.94 µM | TGI (PC-3 prostate): 16.2 µM | TGI (RPMI-8226 leukemia): 4.42 µM | TGI (SF-268 CNS): 97.2 µM | TGI (SF-295 CNS): 25.5 µM | TGI (SF-539 CNS): 7.84 µM | TGI (SK-MEL-2 melanoma): 24.8 µM | TGI (SK-MEL-28 melanoma): > 100 µM | TGI (SK-MEL-5 melanoma): > 22.4 µM | TGI (SK-OV-3 ovarian): 17.5 µM | TGI (SN12C renal): 4.7 µM | TGI (SNB-19 CNS): 36.2 µM | TGI (SNB-75 CNS): 5.54 µM | TGI (T-47D breast): > 100 µM | TGI (TK-10 renal): 3.71 µM | TGI (U251 CNS): 37.9 µM | TGI (UACC-257 melanoma): 9.35 µM | TGI (UACC-62 melanoma): 8.28 µM | TGI (UO-31 renal): 6.08 µM

C[C@]12CC[C@H]3[C@@H](CC=C4C[C@@H](O)CC[C@@]43C)[C@@H]1C[C@H](N1CCOCC1)[C@@H]2O
TGI (786-0 renal): > 100 µM | TGI (A498 renal): > 100 µM | TGI (A549 NSCLC): > 100 µM | TGI (ACHN renal): > 100 µM | TGI (BT-549 breast): > 100 µM | TGI (CAKI-1 renal): > 100 µM | TGI (CCRF-CEM leukemia): > 100 µM | TGI (COLO 205 colon): > 100 µM | TGI (DU-145 prostate): > 100 µM | TGI (EKVX NSCLC): > 100 µM | TGI (HCC-2998 colon): > 100 µM | TGI (HCT-116 colon): > 100 µM | TGI (HCT-15 colon): > 100 µM | TGI (HL-60(TB) leukemia): > 100 µM | TGI (HOP-62 NSCLC): > 100 µM | TGI (HOP-92 NSCLC): > 100 µM | TGI (HS 578T breast): > 100 µM | TGI (HT29 colon): > 100 µM | TGI (IGROV1 ovarian): > 100 µM | TGI (K-562 leukemia): > 100 µM | TGI (KM12 colon): > 100 µM | TGI (LOX IMVI melanoma): > 100 µM | TGI (M14 melanoma): > 100 µM | TGI (MALME-3M melanoma): > 100 µM | TGI (MCF7 breast): > 100 µM | TGI (MDA-MB-231 breast): > 100 µM | TGI (MDA-MB-435): > 100 µM | TGI (MDA-N): > 100 µM | TGI (MOLT-4 leukemia): > 100 µM | TGI (NCI-H226 lung): > 100 µM | TGI (NCI-H23 lung): > 100 µM | TGI (NCI-H460 lung): > 100 µM | TGI (NCI-H522 lung): > 100 µM | TGI (NCI/ADR-RES ovarian): > 100 µM | TGI (OVCAR-3 ovarian): > 100 µM | TGI (OVCAR-4 ovarian): > 100 µM | TGI (OVCAR-5 ovarian): > 100 µM | TGI (OVCAR-8 ovarian): > 100 µM | TGI (PC-3 prostate): > 100 µM | TGI (RPMI-8226 leukemia): > 100 µM | TGI (RXF 393 renal): > 100 µM | TGI (SF-268 CNS): > 100 µM | TGI (SF-295 CNS): > 100 µM | TGI (SF-539 CNS): > 100 µM | TGI (SK-MEL-2 melanoma): > 100 µM | TGI (SK-MEL-28 melanoma): > 100 µM | TGI (SK-MEL-5 melanoma): > 100 µM | TGI (SK-OV-3 ovarian): > 100 µM | TGI (SN12C renal): > 100 µM | TGI (SNB-19 CNS): > 100 µM | TGI (SNB-75 CNS): 97.4 µM | TGI (SW-620 colon): > 100 µM | TGI (T-47D breast): > 100 µM | TGI (TK-10 renal): > 100 µM | TGI (U251 CNS): > 100 µM | TGI (UACC-257 melanoma): > 100 µM | TGI (UACC-62 melanoma): > 100 µM | TGI (UO-31 renal): > 100 µM
